The target in assay [1] is T1, human GPR84 receptor (Homo sapiens, UniProt Q9NQS5).
T1 construct: host or cells: HEK293, transient transfection
The assay can be described thus: Gαi biosensor BRET assay in HEK293 cells (antagonism of ZQ-16). Type of assay: cell-based. The following applies: for inhibition at 5 µM: HEK293, single concentration 5 μM (designated D); for IC50: HEK293 cells, antagonism of 200 nmol/L ZQ-16; for inhibition at 10 µM: HEK293, single concentration 10 μM (designated F); for inhibition at 2 µM: HEK293, single concentration 2 μM (designated A). The procedure, abridged:
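HEK293 cells transiently expressing human GPR84, Gαi2-Rluc8, GFP10-Gγ2 and Gβ1, in Tyrode's buffer pH 7.5. Compounds preincubated 5 min at 37° C, then 200 nmol/L ZQ-16 for 5 min at room temperature; coelenterazine 400A 5 μmol/L. BRET2 acceptor/donor ratio, background- and vehicle-corrected net BRET.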

The subject of assay [2] is neutrophils. The assay can be described thus: Neutrophil migration assay (embelin as chemotactic agent, ATPlite readout). Type of assay: cell-based. The following applies: for IC50: Neutrophil, human neutrophils, embelin as chemotactic agent, read-out: Human Neutrophil migration inhibition IC50; for Human Neutrophil migration inhibition - fold potency to Control Compound: normalized to GPR84 antagonist Control Compound (average IC50 131 nM). Here is the method: Neutrophil migration assay. After isolation, neutrophils were resuspended in chemotaxis buffer (DMEM supplemented with 10 mM HEPES) at a concentration of 8.9×10^6 cells/ml. In a 96-well plate, 20 μl of compound solution in chemotaxis buffer is added to 180 μl of cell suspension. After incubation at 37° C. for 30 minutes, 75 μl of cell suspension is transferred in the upper chamber of a 5 μm pore size Corning HTS transwell. 235 μl of chemotaxis buffer containing the chemotactic agent (embelin) is added to the lower chamber of the transwell. After a 60-minute incubation time at 37° C. in 5%0 C02, the upper chamber of the transwell is removed and the plate is centrifuged at 1500 rpm for 6 minutes. Supermatant is removed and cells resuspended in 100 ul of PBS. ATP content was assessed using ATPlite Luminescence Assay System® according to manufacturer instructions (Perkin Elmer, Buckinghamshire, UK). Briefly, 50 μl of ATPlite buffer and 50 μl of lysis solution is added to the lower chamber of the Transwells. After incubation at room temperature, in the dark with constant agitation for 5 minutes, 150 μl of cell lysate is transferred in a 96 wells white plate and incubated for 10 minutes in the dark. Luminescence is read on a TECAN plate reader, Infinite M1000 (Tecan, Morrisville, NC).
The compound numbers correspond to the compound numbers in Table 1. […] Normalization of the results takes the donor's variation into account.

Each structure is given as a SMILES string. Where only a bound is given, the exact number is not on record here.

T1 sequence (Q9NQS5 whole entry): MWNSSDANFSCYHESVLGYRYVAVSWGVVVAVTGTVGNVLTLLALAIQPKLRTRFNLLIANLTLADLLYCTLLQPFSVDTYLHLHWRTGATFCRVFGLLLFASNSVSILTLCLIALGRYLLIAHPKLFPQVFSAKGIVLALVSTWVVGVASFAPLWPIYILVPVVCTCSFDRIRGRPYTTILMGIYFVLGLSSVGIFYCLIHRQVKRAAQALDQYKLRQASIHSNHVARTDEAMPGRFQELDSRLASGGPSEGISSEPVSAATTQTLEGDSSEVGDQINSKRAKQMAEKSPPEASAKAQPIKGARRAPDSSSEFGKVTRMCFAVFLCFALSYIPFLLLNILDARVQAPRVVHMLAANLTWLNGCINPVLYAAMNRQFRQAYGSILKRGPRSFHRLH

In assay [1], `Cc1cc(C#CCNc2ccccc2)ccc1-c1cn(CC2CCCCO2)nn1` (stereo not drawn) [Compound I-68] came in with an inhibition at 5 µM of 50 to 75% and an IC50 of 1000 to 3000 nM. Further, in assay [2], the IC50 is 300 to 1000 nM and the “Human Neutrophil migration inhibition - fold potency to Control Compound” value was “B (IC50 of >0.5-≤1.0-fold relative to Control Compound)”.
`CCc1cc(N2CC(C)(C)C2)ccc1-c1cn(CC2OCC(C)(C)CO2)nn1` [Compound I-618]: in assay [1], the inhibition at 10 µM is more than 75% and the IC50 was not above 300 nM. In assay [2], the IC50 is not above 300 nM and the “Human Neutrophil migration inhibition - fold potency to Control Compound” value was “A (IC50 of >1.0-fold relative to Control Compound)”.
In assay [1] (HEK293, single concentration 25 μM (designated I)), `Clc1cc(C#CC2CC2)ccc1-c1cn(CC2CCCCO2)nn1` (stereo not drawn) [Compound I-315] returned an inhibition at 25 µM of more than 75%. Besides, the IC50 in assay [1] is more than 3000 nM. Besides, in assay [2], the IC50 is 300 to 1000 nM and the “Human Neutrophil migration inhibition - fold potency to Control Compound” value is “C (IC50≤0.5-fold relative to Control Compound)”.
In assay [1], `Cc1ccc(C#CC2CC2)cc1C(OC1CC1)c1cn(CC2OCC(C)(C)CO2)nn1` (stereo not drawn) [Compound I-644] showed an inhibition at 2 µM of more than 75% and an IC50 of 300 to 1000 nM. In assay [2], the IC50 was not above 300 nM and the “Human Neutrophil migration inhibition - fold potency to Control Compound” value is reported as “A (IC50 of >1.0-fold relative to Control Compound)”.
In assay [1], `Cc1cc(C#CCN(C)Cc2ccccc2)ccc1-c1cn(CC2CCCCO2)nn1` (stereo not drawn) [Compound I-76] returned an inhibition at 5 µM of more than 75% and an IC50 of 300 to 1000 nM. For the same compound, in assay [2], the IC50 was not above 300 nM and the “Human Neutrophil migration inhibition - fold potency to Control Compound” value was “B (IC50 of >0.5-≤1.0-fold relative to Control Compound)”.
On to `Cc1cc(C#CCN2CCN(c3ccccc3)CC2)ccc1-c1cn(CC2CCCCO2)nn1` (stereo not drawn) [Compound I-120], for which the IC50 in assay [1] was not above 300 nM. Moreover, in assay [2], the IC50 is not above 300 nM and the “Human Neutrophil migration inhibition - fold potency to Control Compound” value is “B (IC50 of >0.5-≤1.0-fold relative to Control Compound)”.
In assay [1], `CC(C)c1cc(C#CCN2CC(C)(C)C2)cnc1-c1cn(CC2CCCCO2)nn1` (stereo not drawn) [Compound I-462] returned an inhibition at 10 µM of more than 75% and an IC50 of 1000 to 3000 nM. In assay [2], the IC50 is not above 300 nM and the “Human Neutrophil migration inhibition - fold potency to Control Compound” value is listed as “C (IC50≤0.5-fold relative to Control Compound)”.
In assay [1], `Cc1cc(C#CC2CC2)cnc1-c1cn(CC2CCCCO2)nn1` (stereo not drawn) [Compound I-107] came in with an inhibition at 10 µM of more than 75% and an IC50 of 1000 to 3000 nM. Further, in assay [2], the IC50 was not above 300 nM and the “Human Neutrophil migration inhibition - fold potency to Control Compound” value is reported as “A (IC50 of >1.0-fold relative to Control Compound)”.
As to `Cc1cc(N2CC3(CCCN3Cc3ccccc3)C2)ccc1-c1cn(CC2CCCCO2)nn1` (stereo not drawn) [Compound I-149], the inhibition at 2 µM in assay [1] fell in the range of 25 to 50%. For the same compound, in assay [2], the IC50 was in the range of 1000 to 3000 nM and the “Human Neutrophil migration inhibition - fold potency to Control Compound” value is listed as “C (IC50≤0.5-fold relative to Control Compound)”.
In assay [1], `Cc1cc(C#CCn2cc(-c3ccc(N(C)C)cc3)nn2)ccc1-c1cn(CC2CCCCO2)nn1` (stereo not drawn) [Compound I-456] displayed an inhibition at 2 µM of more than 75% and an IC50 not above 300 nM. In assay [2], the IC50 is not above 300 nM and the “Human Neutrophil migration inhibition - fold potency to Control Compound” value is “A (IC50 of >1.0-fold relative to Control Compound)”.
In assay [1], `Cc1cc(N2CCN([C@@H](C)c3ccccn3)CC2)ccc1-c1cn(C[C@H]2CCCCO2)nn1` [Compound I-612] came in with an inhibition at 10 µM of more than 75% and an IC50 of 300 to 1000 nM. For the same compound, in assay [2], the IC50 is not above 300 nM and the “Human Neutrophil migration inhibition - fold potency to Control Compound” value was “A (IC50 of >1.0-fold relative to Control Compound)”.
With `COC(c1cn(CC2CCCCO2)nn1)c1cc(C#CC2CC2)ccc1C` (stereo not drawn) [Compound I-417], in assay [1], the inhibition at 2 µM is more than 75% and the IC50 lay in the range of 300 to 1000 nM. In addition, in assay [2], the IC50 was not above 300 nM and the “Human Neutrophil migration inhibition - fold potency to Control Compound” value is “A (IC50 of >1.0-fold relative to Control Compound)”.
`CCc1cc(C#CCNc2ccccc2)cnc1-c1cn(CC2CC(C)(C)CO2)nn1` (stereo not drawn) [Compound I-474]: in assay [1], the inhibition at 2 µM is more than 75% and the IC50 lay within 300 to 1000 nM. Moreover, in assay [2], the IC50 is not above 300 nM and the “Human Neutrophil migration inhibition - fold potency to Control Compound” value is reported as “A (IC50 of >1.0-fold relative to Control Compound)”.
For the compound `CC(C)Oc1cc(C#CC2CC2)ccc1-c1cn(CC2CCCCO2)nn1` (stereo not drawn) [Compound I-187], the IC50 in assay [1] was more than 3000 nM. In assay [2], the IC50 is not above 300 nM and the “Human Neutrophil migration inhibition - fold potency to Control Compound” value is recorded as “B (IC50 of >0.5-≤1.0-fold relative to Control Compound)”.
In the case of `Cc1cc(C#CC(C)(C)C)ccc1-c1cn(CC2CCCCO2)nn1` (stereo not drawn) [Compound I-67], the IC50 in assay [1] lay within 1000 to 3000 nM; in assay [2], 300 to 1000 nM. The “Human Neutrophil migration inhibition - fold potency to Control Compound” value in assay [2] is reported as “B (IC50 of >0.5-≤1.0-fold relative to Control Compound)”.
On to `Cc1cc(C#CCN(C)CC2CC2)ccc1-c1cn(CC2CCCCO2)nn1` (stereo not drawn) [Compound I-121], for which, in assay [1], the inhibition at 10 µM is more than 75% and the IC50 was in the range of 300 to 1000 nM. In assay [2], the IC50 was in the range of 300 to 1000 nM and the “Human Neutrophil migration inhibition - fold potency to Control Compound” value is on record as “C (IC50≤0.5-fold relative to Control Compound)”.
In the case of `Cc1cc(N2CCN(Cc3ccccn3)CC2)ccc1-c1cn(CC2OCC3(CC3)CO2)nn1` [Compound I-637], in assay [1], the inhibition at 2 µM is more than 75% and the IC50 lay within 300 to 1000 nM. In assay [2], the IC50 is not above 300 nM and the “Human Neutrophil migration inhibition - fold potency to Control Compound” value was “A (IC50 of >1.0-fold relative to Control Compound)”.
In assay [1], `Cc1cc(C#CCN2CC(C)(C)C2)cnc1-c1cn(CC2OCC(C)(C)CO2)nn1` [Compound I-596] registered an inhibition at 10 µM of more than 75% and an IC50 of 300 to 1000 nM. For the same compound, in assay [2], the IC50 was not above 300 nM and the “Human Neutrophil migration inhibition - fold potency to Control Compound” value is reported as “A (IC50 of >1.0-fold relative to Control Compound)”.
In assay [1], `CCc1cc(C#CCNc2cccnc2)cnc1-c1cn(C[C@H]2CCCCO2)nn1` [Compound I-535] yielded an inhibition at 10 µM of more than 75% and an IC50 not above 300 nM. For the same compound, in assay [2], the IC50 is not above 300 nM and the “Human Neutrophil migration inhibition - fold potency to Control Compound” value is listed as “B (IC50 of >0.5-≤1.0-fold relative to Control Compound)”.
In assay [1], `Cc1cc(C#CCN(C)CC2(C(F)(F)F)CC2)ccc1-c1cn(CC2CCCCO2)nn1` (stereo not drawn) [Compound I-138] gave an inhibition at 10 µM of 50 to 75% and an IC50 of 1000 to 3000 nM. Also, in assay [2], the IC50 is 1000 to 3000 nM and the “Human Neutrophil migration inhibition - fold potency to Control Compound” value is on record as “C (IC50≤0.5-fold relative to Control Compound)”.
Regarding `Cc1cc(C#CC2CC2)ccc1-c1cn(CC2CCCCO2)nn1` (stereo not drawn) [Compound I-34], the inhibition at 6.25 µM in assay [1] (HEK293, single concentration 6.25 μM (designated E)) was in the range of 50 to 75%. Also, in assay [1], the IC50 is more than 3000 nM. In assay [2], the IC50 lay in the range of 1000 to 3000 nM and the “Human Neutrophil migration inhibition - fold potency to Control Compound” value is reported as “C (IC50≤0.5-fold relative to Control Compound)”.
In turn, `CC(C)c1cc(C#CC2CC2)ccc1-c1cn(CC2CCCCO2)nn1` (stereo not drawn) [Compound I-88] registered an IC50 in assay [1] of 1000 to 3000 nM. In assay [2], the IC50 was 1000 to 3000 nM and the “Human Neutrophil migration inhibition - fold potency to Control Compound” value was “C (IC50≤0.5-fold relative to Control Compound)”.
In assay [1], `Cc1cc(N2CCN(Cc3ccccn3)CC2)ccc1-c1cn(C[C@H]2CCC(F)(F)CO2)nn1` (stereo in doubt) [Compound I-635] gave an inhibition at 10 µM of 50 to 75% and an IC50 not above 300 nM. In assay [2], the IC50 was in the range of 300 to 1000 nM and the “Human Neutrophil migration inhibition - fold potency to Control Compound” value is recorded as “C (IC50≤0.5-fold relative to Control Compound)”.

Values taken from patent US12617777B2, “GPR84 antagonists and uses thereof” (Liminal BioSciences Limited, priority 2021, dated 2026).
